Measurements taken from patent publication US11780845B2 (Relay Therapeutics, Inc., priority 2019, dated 2023).

Tests used:
SNU-16 = assay: Cell SNU-16 assay; type: cell-based
FGFR2 = FGFR2 (Homo sapiens (Human), UniProt P21802); assay: Biochemical FGFR2 Caliper assay
[1] = Homo sapiens, SNU-16, SNU-16 cells

FGFR2, sequence (P21802 22-821): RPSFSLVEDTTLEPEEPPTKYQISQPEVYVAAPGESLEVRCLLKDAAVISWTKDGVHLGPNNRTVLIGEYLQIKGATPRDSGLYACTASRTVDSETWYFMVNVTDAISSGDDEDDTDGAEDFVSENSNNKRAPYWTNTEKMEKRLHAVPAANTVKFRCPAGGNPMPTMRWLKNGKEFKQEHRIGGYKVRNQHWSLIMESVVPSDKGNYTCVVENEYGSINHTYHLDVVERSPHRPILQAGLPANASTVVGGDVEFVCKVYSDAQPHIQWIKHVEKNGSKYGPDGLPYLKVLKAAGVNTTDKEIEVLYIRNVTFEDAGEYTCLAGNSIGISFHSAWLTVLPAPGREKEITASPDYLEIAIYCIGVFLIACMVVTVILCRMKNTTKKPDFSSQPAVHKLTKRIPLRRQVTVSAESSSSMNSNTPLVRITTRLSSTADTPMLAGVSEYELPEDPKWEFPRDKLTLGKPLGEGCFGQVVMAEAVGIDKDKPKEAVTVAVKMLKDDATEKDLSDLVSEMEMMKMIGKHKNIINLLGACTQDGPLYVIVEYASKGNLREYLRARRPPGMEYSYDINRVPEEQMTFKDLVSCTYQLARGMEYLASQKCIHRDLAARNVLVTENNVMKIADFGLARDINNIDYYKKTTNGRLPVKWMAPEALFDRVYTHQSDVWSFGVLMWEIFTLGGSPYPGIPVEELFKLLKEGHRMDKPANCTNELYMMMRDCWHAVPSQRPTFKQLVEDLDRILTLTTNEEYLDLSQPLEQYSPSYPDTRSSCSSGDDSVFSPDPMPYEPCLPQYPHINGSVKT

SMILES	IC50 (SNU-16; [1]) [nM]	IC50 (FGFR2) [nM]	IC50 (SNU-16; SNU-16 cells) [nM]
C#Cc1cc(C)c(-c2c(-c3ccc(Oc4nccc(C)n4)c(F)c3)c3c(N)ncnc3n2[C@H]2C[C@H](O)C2)cn1 (atropisomer, axis not shown) [Example 1357]	≤ 100	< 100	
C#Cc1cc(OC)c(-c2c(-c3ccc(Oc4nccc(C)n4)c(F)c3)c3c(C)ncnc3n2C)c(C)n1 (atropisomer, axis not shown) [Example 1446]		< 100	≤ 100
C#Cc1cc(C)c(-c2c(-c3ncc(Oc4nccc(C)n4)cc3F)c3c(N)ncnc3n2C)c(C)n1 (atropisomer, axis not shown) [Example 1453]	≤ 100	< 100	
C#Cc1cc(OC)c(-c2c(-c3ccc(Oc4nccc(C)n4)c(F)c3)c3c(C)ncnc3n2C)c(C)n1 (atropisomer, axis not shown) [Example 1459]		< 100	≤ 100
C#Cc1cc(OC)c(-c2c(-c3ccc(Oc4nccc(C)n4)c(F)c3)c3c(C)ncnc3n2C)c(C)n1 (atropisomer, axis not shown) [Example 1460]		1000 to 100000	250 to 1000
C#Cc1cc(C)c(-c2c(C3=CC[C@H](C(=O)N4CCC[C@H]4C#N)CC3)c3c(C)ncnc3n2C)c(C)n1 (atropisomer, axis not shown) [Example 1463]	≤ 100	100 to 250	
C#Cc1cc(C)c(-c2c(C3=CC[C@@H](C(=O)N4CCC[C@H]4C#N)CC3)c3c(C)ncnc3n2C)c(C)n1 (atropisomer, axis not shown) [Example 1464]		250 to 1000	250 to 1000
C#Cc1cc(C)c(-c2c(C3=CC[C@H](C(=O)N4CCC[C@H]4C#N)CC3)c3c(C)ncnc3n2C)c(C)n1 (atropisomer, axis not shown) [Example 1465]		< 100	≤ 100
C#Cc1cc(C)c(-c2c(C3=CC[C@@H](C(=O)N4CCC[C@H]4C#N)CC3)c3c(C)ncnc3n2C)c(C)n1 (atropisomer, axis not shown) [Example 1466]		100 to 250	100 to 250
C#Cc1cc(C)c(-c2c(C3=CC[C@H](C(=O)N4CCC[C@H]4C#N)CC3)c3c(N)ncnc3n2C)c(C)n1 (atropisomer, axis not shown) [Example 1469]	≤ 100	< 100	
C#Cc1cc(C)c(-c2c(C3=CC[C@@H](C(=O)N4CCC[C@H]4C#N)CC3)c3c(N)ncnc3n2C)c(C)n1 (atropisomer, axis not shown) [Example 1471]	≤ 100	< 100	
Cn1c([C@@H]2CCN(C#N)C2)c(-c2ccc(C(=O)N3CCCC3)cc2)c2c(N)ncnc21 (single isomer, unassigned) [Example 860]	250 to 1000	< 100	
Cn1c([C@H]2CCN(C#N)C2)c(-c2ccc(C(=O)N3CCCC3)cc2)c2c(N)ncnc21 (single isomer, unassigned) [Example 861]	1000 to 100000	1000 to 100000	
C=CS(=O)(=O)N1CC[C@H](c2c(-c3ccc(C(=O)N4CCCC4)cc3)c3c(N)ncnc3n2C)C1 (single isomer, unassigned) [Example 863]	100 to 250	250 to 1000	
C=CS(=O)(=O)N1CC[C@@H](c2c(-c3ccc(C(=O)N4CCCC4)cc3)c3c(N)ncnc3n2C)C1 (single isomer, unassigned) [Example 864]	100 to 250	< 100	
C=C(C)C(=O)Nc1ccc(-c2nn3ccnc(N)c3c2C2=CC[C@@H](C(=O)N3CCCC3)CC2)cc1 (single isomer, unassigned) [Example 867]	≤ 100	< 100	
C=C(C)C(=O)Nc1ccc(-c2nn3ccnc(N)c3c2C2=CC[C@H](C(=O)N3CCCC3)CC2)cc1 (single isomer, unassigned) [Example 869]	250 to 1000	1000 to 100000	

SMILES	IC50 (SNU-16; [1]) [nM]	IC50 (FGFR2) [nM]	IC50 (SNU-16; SNU-16 cells) [nM]
C=CC(=O)N1CC=C(c2c(C3=CC[C@H](C(=O)N4CCCC4)CC3)c3c(N)ncnc3n2C)C1 (single isomer, unassigned) [Example 871]	250 to 1000	250 to 1000	
C=CC(=O)N1CC=C(c2c(C3=CC[C@@H](C(=O)N4CCCC4)CC3)c3c(N)ncnc3n2C)C1 (single isomer, unassigned) [Example 872]	100 to 250	100 to 250	
C=CC(=O)N1CC[C@H](c2c(C3=CC[C@H](C(=O)N4CCCC4)CC3)c3c(N)ncnc3n2C)C1 (single isomer, unassigned) [Example 873]	250 to 1000	1000 to 100000	
C=CC(=O)N1CC[C@H](c2c(C3=CC[C@@H](C(=O)N4CCCC4)CC3)c3c(N)ncnc3n2C)C1 (single isomer, unassigned) [Example 874]	100 to 250	250 to 1000	
Cc1ccnc(Oc2ccc(-c3c([C@@H]4CCN(C(=O)CCl)C4)n(C)c4ncnc(N)c34)cc2)n1 (single isomer, unassigned) [Example 875]	250 to 1000	250 to 1000	
Cc1ccnc(Oc2ccc(-c3c([C@H]4CCN(C(=O)CCl)C4)n(C)c4ncnc(N)c34)cc2)n1 (single isomer, unassigned) [Example 876]	≤ 100	< 100	
C=C(C)C(=O)Nc1ccc(-c2c(C3=C(F)C[C@@H](C(=O)N4CCCC4)CC3)c3c(N)ncnc3n2C)cc1 (single isomer, unassigned) [Example 883]	1000 to 100000	1000 to 100000	
C=CC(=O)N1C[C@@H](c2c(-c3ccc(C(=O)N4CCCCC4)cc3)c3c(N)ncnc3n2C)C[C@@H]1C (single isomer, unassigned) [Example 884]	100 to 250	1000 to 100000	
C=CC(=O)N1CC[C@@H](c2c(C3=CC[C@H](C(=O)N4CCCC4)CC3)c3c(N)ncnc3n2C)C1 (single isomer, unassigned) [Example 887]	1000 to 100000	1000 to 100000	
C=CC(=O)N1C[C@H](c2c(-c3ccc(C(=O)N4CCCCC4)cc3)c3c(N)ncnc3n2C)C[C@@H]1C (single isomer, unassigned) [Example 888]	1000 to 100000	1000 to 100000	
C=C(C)C(=O)Nc1ccc(-c2c(C3=CC[C@@H](C(=O)N4CCC5(CC5)C4)CC3)c3c(N)ncnc3n2C)cc1 (single isomer, unassigned) [Example 891]	1000 to 100000	1000 to 100000	
C=C(C)C(=O)Nc1ccc(-c2c(C3=CC[C@H](C(=O)N4CCC5(CC5)C4)CC3)c3c(N)ncnc3n2C)cc1 (single isomer, unassigned) [Example 892]	≤ 100	100 to 250	
C=C(C)C(=O)Nc1ccc(-c2c(-c3ccc4c(c3)CO[C@@H]4c3cccc(C)n3)c3c(N)ncnc3n2C)cc1 (single isomer, unassigned) [Example 894]	250 to 1000	250 to 1000	
C=C(C)C(=O)Nc1ccc(-c2c(-c3ccc4c(c3)CO[C@H]4c3cccc(C)n3)c3c(N)ncnc3n2C)cc1 (single isomer, unassigned) [Example 896]	250 to 1000	100 to 250	
Cn1c(-c2ccc(NC(=O)[C@@H]3CN3)cc2)c(-c2ccc(C(=O)N3CCCC3)cc2)c2c(N)ncnc21 (single isomer, unassigned) [Example 899]	1000 to 100000	1000 to 100000	
Cn1c(-c2ccc(NC(=O)[C@H]3CN3)cc2)c(-c2ccc(C(=O)N3CCCC3)cc2)c2c(N)ncnc21 (single isomer, unassigned) [Example 900]	1000 to 100000	1000 to 100000	
Cn1c(-c2ccc(NC(=O)CCl)cc2)c(C2=CC[C@H](C(=O)N3CCCC3)CC2)c2c(N)ncnc21 (single isomer, unassigned) [Example 905]	≤ 100	100 to 250	
